According to patent US10385024B2, “Compounds and methods for inhibiting NHE-mediated antiport in the treatment of disorders associated with fluid retention or salt overload and gastrointestinal tract disorders” (Ardelyx, Inc., priority 2012, dated 2019):

Tests used:
[1] = target: T1, Rat NHE-3 (Rattus norvegicus, UniProt P26433); assay: Cell-based assay of NHE-3 activity (rat NHE-3 prompt inhibition); conditions: OK cells with rat NHE-3 gene, compound present during pH recovery; for IC50: read-out: Rat NHE3 pIC50 (prompt) (converted)
T1 construct: expressed in transfected cells; host or cells: Opossum kidney (OK) cells (ATCC), transfected by electroporation
Method: (§1) Rat or human NHE-3-mediated Na^+-dependent H^+ antiport was measured using a modification of the pH sensitive dye method originally reported by Paradiso (Proc. Natl. Acad. Sci. USA. (1984) 81(23): 7436-7440). Opossum kidney (OK) cells were obtained from the ATCC and propagated per their instructions. The rat NHE-3 gene (GenBank M85300) or the human NHE-3 gene (GenBank NM_004174.1) was introduced into OK cells via electroporation, and cells were seeded into 96 well plates and grown overnight. Medium was aspirated from the wells, cells were washed twice with NaCl-HEPES buffer (100 mM NaCl, 50 mM HEPES, 10 mM glucose, 5 mM KCl, 2 mM CaCl2, 1 mM MgCl2, pH 7.4), then incubated for 30 min at room temperature with NH4Cl-HEPES buffer (20 mM NH4Cl, 80 mM NaCl, 50 mM HEPES, 5 mM KCl, 2 mM CaCl2, 1 mM MgCl2, pH 7.4) containing 5 μM bis(acetoxymethyl) 3,3′-(3′,6′-bis(acetoxymethoxy)-5-((acetoxymethoxy)carbonyl)-3-oxo-3H-spiro[isobenzofuran-1,9′-xanthene]-2′,7′-diyl)dipropanoate (BCECF-AM). Cells were washed twice with Ammonium free, Na^+-free HEPES (100 mM choline, 50 mM HEPES, 10 mM glucose, 5 mM KCl, 2 mM CaCl2, 1 mM MgCl2, pH 7.4) and incubated in the same buffer for 10 minutes at room temperature to lower intracellular pH. […] Initial rates were plotted as the average 2 or more replicates, and pIC50 values were estimated using GraphPad Prism.

[2] = target: T1, Rat NHE-3; assay: Cell-based assay of NHE-3 activity (persistent inhibition, after washout); conditions: OK cells with rat NHE-3 gene, 60 min incubation, recovery initiated 40 min after compound washout; for IC50: read-out: Rat NHE3 pIC50 (persistent) (converted)
Method: The ability of compounds to inhibit Rat NHE-3-mediated Na^+-dependent H^+ antiport after application and washout was measured using a modification of the pH sensitive dye method described above in Example 74. Opossum kidney (OK) cells were obtained from the ATCC and propagated per their instructions. The rat NHE-3 gene was introduced into OK cells via electroporation, and cells were seeded into 96 well plates and grown overnight. Medium was aspirated from the wells, cells were washed twice with NaCl-HEPES buffer (100 mM NaCl, 50 mM HEPES, 10 mM glucose, 5 mM KCl, 2 mM CaCl2, 1 mM MgCl2, pH 7.4), then overlayed with NaCl-HEPES buffer containing 0-30 μM test compound. After a 60 min incubation, the test drug containing buffer was aspirated from the cells, cells were washed twice with NaCl-HEPES buffer without drug, then incubated for 30 min at room temperature with NH4Cl-HEPES buffer (20 mM NH4Cl, 80 mM NaCl, 50 mM HEPES, 5 mM KCl, 2 mM CaCl2, 1 mM MgCl2, pH 7.4) containing 5 μM BCECF-AM. Cells were washed twice with ammonium free, Na^+-free HEPES (100 mM choline, 50 mM HEPES, 10 mM glucose, 5 mM KCl, 2 mM CaCl2, 1 mM MgCl2, pH 7.4) and incubated in the same buffer for 10 minutes at room temperature to lower intracellular pH. […] Initial rates were plotted as the average 2 or more replicates, and pIC50 values were estimated using GraphPad Prism.

[3] = target: T2, human NHE-3 (Homo sapiens, UniProt P48764); assay: Cell-based assay of NHE-3 activity (human NHE3 inhibition assay); conditions: OK cells with human NHE-3 gene, BCECF pH dye, 0-30 μM test compound; for IC50: read-out: Human NHE3 pIC50 (converted)
T2 construct: expressed in transfected cells; host or cells: Opossum kidney (OK) cells (ATCC), transfected by electroporation
T2 sequence (P48764 26-834): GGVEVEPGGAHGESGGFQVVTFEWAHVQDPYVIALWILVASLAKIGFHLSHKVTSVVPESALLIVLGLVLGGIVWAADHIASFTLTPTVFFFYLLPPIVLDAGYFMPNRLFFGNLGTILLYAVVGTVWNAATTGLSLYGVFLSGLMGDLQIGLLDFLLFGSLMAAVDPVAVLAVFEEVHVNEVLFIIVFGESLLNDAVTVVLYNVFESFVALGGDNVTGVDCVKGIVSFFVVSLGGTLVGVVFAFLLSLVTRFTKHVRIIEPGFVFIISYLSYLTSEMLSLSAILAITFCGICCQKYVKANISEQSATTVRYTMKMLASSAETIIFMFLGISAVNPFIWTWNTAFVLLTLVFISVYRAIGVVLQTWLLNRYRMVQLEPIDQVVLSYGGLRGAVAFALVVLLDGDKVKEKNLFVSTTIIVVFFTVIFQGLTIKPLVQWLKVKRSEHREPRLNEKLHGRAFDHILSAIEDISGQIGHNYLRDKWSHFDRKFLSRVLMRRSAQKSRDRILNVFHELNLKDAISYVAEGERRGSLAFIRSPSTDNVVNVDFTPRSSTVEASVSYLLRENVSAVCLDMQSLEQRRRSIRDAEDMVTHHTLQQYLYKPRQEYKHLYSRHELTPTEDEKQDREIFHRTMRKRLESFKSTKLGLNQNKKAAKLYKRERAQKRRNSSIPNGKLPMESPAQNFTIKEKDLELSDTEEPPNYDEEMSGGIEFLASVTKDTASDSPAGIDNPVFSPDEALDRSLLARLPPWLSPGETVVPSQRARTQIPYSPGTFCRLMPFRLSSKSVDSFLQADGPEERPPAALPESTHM
Method: as §1

T1 sequence (P26433 29-831): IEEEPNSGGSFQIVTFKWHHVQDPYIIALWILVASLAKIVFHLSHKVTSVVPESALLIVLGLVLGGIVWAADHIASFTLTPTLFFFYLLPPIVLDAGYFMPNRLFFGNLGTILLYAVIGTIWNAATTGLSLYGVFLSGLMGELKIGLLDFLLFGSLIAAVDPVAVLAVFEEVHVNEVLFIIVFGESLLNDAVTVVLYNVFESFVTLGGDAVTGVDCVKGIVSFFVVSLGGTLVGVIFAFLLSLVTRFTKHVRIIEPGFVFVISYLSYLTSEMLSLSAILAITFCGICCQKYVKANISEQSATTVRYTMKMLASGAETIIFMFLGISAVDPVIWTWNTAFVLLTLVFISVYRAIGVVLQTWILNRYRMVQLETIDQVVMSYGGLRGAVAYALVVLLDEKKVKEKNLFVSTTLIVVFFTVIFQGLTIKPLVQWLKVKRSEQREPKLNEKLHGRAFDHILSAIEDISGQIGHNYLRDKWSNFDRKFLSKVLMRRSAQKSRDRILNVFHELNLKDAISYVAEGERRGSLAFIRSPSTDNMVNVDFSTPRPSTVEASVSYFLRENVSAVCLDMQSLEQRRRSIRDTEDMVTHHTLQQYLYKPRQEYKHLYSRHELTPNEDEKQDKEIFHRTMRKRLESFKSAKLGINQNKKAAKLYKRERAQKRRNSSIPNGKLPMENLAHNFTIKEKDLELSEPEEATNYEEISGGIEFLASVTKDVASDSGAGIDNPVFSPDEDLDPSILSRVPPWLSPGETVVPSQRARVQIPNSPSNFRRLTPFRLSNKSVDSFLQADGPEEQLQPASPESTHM

| SMILES | IC50 [1] | IC50 [2] | IC50 [3] | Rat NHE3 pIC50 (prompt) [1] | Rat NHE3 pIC50 (persistent) [2] | Human NHE3 pIC50 [3] |
| --- | --- | --- | --- | --- | --- | --- |
| CCCCCCCCCCC(=O)NC(CCC(=O)NCCOCCOCCOCCNS(=O)(=O)c1cccc([C@@H]2CN(C)Cc3c(Cl)cc(Cl)cc32)c1)(CCC(=O)NCCOCCOCCOCCNS(=O)(=O)c1cccc([C@@H]2CN(C)Cc3c(Cl)cc(Cl)cc32)c1)CCC(=O)NCCOCCOCCOCCNS(=O)(=O)c1cccc([C@@H]2CN(C)Cc3c(Cl)cc(Cl)cc32)c1 [Example 15, 4-(1-(3-((S)-6,8-dichloro-2-methyl-1,2,3,4-tetrahydroisoquinolin-4-yl)phenylsulfonamido)-13-oxo-3,6,9-trioxa-12-azapentadecan-15-yl)-N^1,N^7-bis(2-(2-(2-(2-(3-((S)-6,8-dichloro-2-methyl-1,2,3,4-tetrahydroisoquinolin-4-yl)phenylsulfonamido)ethoxy)ethoxy)ethoxy)ethyl)-4-undecanamidoheptanediamide] | > 10 µM | 0.1 to 10 µM | 0.1 to 10 µM | – | – | – |
| CN1Cc2c(Cl)cc(Cl)cc2[C@H](c2cccc(S(=O)(=O)NCCOCCOCCOCCNC(=O)CCC(CCC(=O)NCCOCCOCCOCCNS(=O)(=O)c3cccc([C@@H]4CN(C)Cc5c(Cl)cc(Cl)cc54)c3)(CCC(=O)NCCOCCOCCOCCNS(=O)(=O)c3cccc([C@@H]4CN(C)Cc5c(Cl)cc(Cl)cc54)c3)NC(=O)c3ccc(-c4ccc(Cl)cc4)cc3)c2)C1 [Example 16, 4-(4′-chlorobiphenyl-4-ylcarboxamido)-4-(1-(3-((S)-6,8-dichloro-2-methyl-1,2,3,4-tetrahydroisoquinolin-4-yl)phenylsulfonamido)-13-oxo-3,6,9-trioxa-12-azapentadecan-15-yl)-N^1,N^7-bis(2-(2-(2-(2-(3-((S)-6,8-dichloro-2-methyl-1,2,3,4-tetrahydroisoquinolin-4-yl)phenylsulfonamido)ethoxy)ethoxy)ethoxy)ethyl)heptanediamide] | 0.1 to 10 µM | 0.1 to 10 µM | > 10 µM | – | – | – |
| CN1Cc2c(Cl)cc(Cl)cc2[C@H](c2cccc(S(=O)(=O)NCCOCCOCCOCCn3cc(CN(Cc4cn(CCOCCOCCOCCNS(=O)(=O)c5cccc([C@@H]6CN(C)Cc7c(Cl)cc(Cl)cc76)c5)nn4)Cc4cn(CCOCCOCCOCCNS(=O)(=O)c5cccc([C@@H]6CN(C)Cc7c(Cl)cc(Cl)cc76)c5)nn4)nn3)c2)C1 [Example 18, (S,S)—N,N′,N″-(2,2′,2″-(2,2′,2″-(2,2′,2″-(2,2′,2″-(4,4′,4″-nitrilotris(methylene)tris(1H-1,2,3-triazole-4,1-diyl))tris(ethane-2,1-diyl))tris(oxy)tris(ethane-2,1-diyl))tris(oxy)tris(ethane-2,1-diyl))tris(oxy)tris(ethane-2,1-diyl))tris(3-((S)-6,8-dichloro-2-methyl-1,2,3,4-tetrahydroisoquinolin-4-yl)benzenesulfonamide)] | 0.1 to 10 µM | > 10 µM | 0.1 to 10 µM | – | – | – |
| CN1Cc2c(Cl)cc(Cl)cc2[C@H](c2cccc(S(=O)(=O)NCCOCCOCCOCCNC(=O)CCC(CCC(=O)NCCOCCOCCOCCNS(=O)(=O)c3cccc([C@@H]4CN(C)Cc5c(Cl)cc(Cl)cc54)c3)(CCC(=O)NCCOCCOCCOCCNS(=O)(=O)c3cccc([C@@H]4CN(C)Cc5c(Cl)cc(Cl)cc54)c3)NCc3ccc(-c4ccc(Cl)cc4)cc3)c2)C1 [Example 19, 4-((4′-chlorobiphenyl-4-yl)methylamino)-4-(1-(3-((S)-6,8-dichloro-2-methyl-1,2,3,4-tetrahydroisoquinolin-4-yl)phenylsulfonamido)-13-oxo-3,6,9-trioxa-12-azapentadecan-15-yl)-N^1,N^7-bis(2-(2-(2-(2-(3-((S)-6,8-dichloro-2-methyl-1,2,3,4-tetrahydroisoquinolin-4-yl)phenylsulfonamido)ethoxy)ethoxy)ethoxy)ethyl)heptanediamide] | > 10 µM | < 0.1 µM | > 10 µM | – | – | – |
| CCCCCCCCOc1ccc(CNC(CCC(=O)NCCOCCOCCOCCNS(=O)(=O)c2cccc([C@@H]3CN(C)Cc4c(Cl)cc(Cl)cc43)c2)(CCC(=O)NCCOCCOCCOCCNS(=O)(=O)c2cccc([C@@H]3CN(C)Cc4c(Cl)cc(Cl)cc43)c2)CCC(=O)NCCOCCOCCOCCNS(=O)(=O)c2cccc([C@@H]3CN(C)Cc4c(Cl)cc(Cl)cc43)c2)cc1 [Example 20, 4-(1-(3-((S)-6,8-dichloro-2-methyl-1,2,3,4-tetrahydroisoquinolin-4-yl)phenylsulfonamido)-13-oxo-3,6,9-trioxa-12-azapentadecan-15-yl)-N^1,N^7-bis(2-(2-(2-(2-(3-((S)-6,8-dichloro-2-methyl-1,2,3,4-tetrahydroisoquinolin-4-yl)phenylsulfonamido)ethoxy)ethoxy)ethoxy)ethyl)-4-(4-(octyloxy)benzylamino)heptanediamide] | 0.1 to 10 µM | < 0.1 µM | < 0.1 µM | – | – | – |
| CCCCCCCCCCC(=O)NC(CCC(=O)NCCOCCOCCNS(=O)(=O)c1cccc([C@@H]2CN(C)Cc3c(Cl)cc(Cl)cc32)c1)(CCC(=O)NCCOCCOCCNS(=O)(=O)c1cccc([C@@H]2CN(C)Cc3c(Cl)cc(Cl)cc32)c1)CCC(=O)NCCOCCOCCNS(=O)(=O)c1cccc([C@@H]2CN(C)Cc3c(Cl)cc(Cl)cc32)c1 [Example 22] | – | – | – | A (A NHE3 pIC50 < 5) | B (B NHE3 pIC50 5-7) | B (B NHE3 pIC50 5-7) |
| CCCCCCCCOc1ccc(CNC(CCC(=O)NCCOCCOCCNS(=O)(=O)c2cccc([C@@H]3CN(C)Cc4c(Cl)cc(Cl)cc43)c2)(CCC(=O)NCCOCCOCCNS(=O)(=O)c2cccc([C@@H]3CN(C)Cc4c(Cl)cc(Cl)cc43)c2)CCC(=O)NCCOCCOCCNS(=O)(=O)c2cccc([C@@H]3CN(C)Cc4c(Cl)cc(Cl)cc43)c2)cc1 [Example 23] | – | – | – | B (B NHE3 pIC50 5-7) | B (B NHE3 pIC50 5-7) | C (C NHE3 pIC50 > 7) |
| CN1Cc2c(Cl)cc(Cl)cc2[C@H](c2cccc(S(=O)(=O)NCCOCCOCCNC(=O)CCC(CCC(=O)NCCOCCOCCNS(=O)(=O)c3cccc([C@@H]4CN(C)Cc5c(Cl)cc(Cl)cc54)c3)(CCC(=O)NCCOCCOCCNS(=O)(=O)c3cccc([C@@H]4CN(C)Cc5c(Cl)cc(Cl)cc54)c3)NCc3ccc(-c4ccc(Cl)cc4)cc3)c2)C1 [Example 24] | – | – | – | A (A NHE3 pIC50 < 5) | B (B NHE3 pIC50 5-7) | A (A NHE3 pIC50 < 5) |
